In US20240270762A1, “PENICILLIN-BINDING PROTEIN INHIBITORS” (priority 2021, published 2024):
Values after ≈ are worked out from the molar mass of the structure shown.

Columns and labels:
[1] = biological target: T1, PBP3 from Pseudomonas aeruginosa (PAO1) (Pseudomonas aeruginosa, UniProt G3XD46); assay: Bocillin-FL fluorescence polarization competition binding, P. aeruginosa PBP3; details: Binding affinity to P. aeruginosa PBP3; fluorescence polarization competition binding assay using Bocillin-FL; read-out: P. aeruginosa PBP3 Potency
T1 construct: made in house
How it was run: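 Purified PBP was preincubated with inhibitor (E. coli PBP3 1.5 μM, 30 min; P. aeruginosa PBP3 0.75 μM, A. baumannii PBP3 0.2 μM and PBP1a 1 μM, 15 min), then Bocillin-FL (0.1 μM; 0.05 μM for PBP1a) added and FP read up to 60 min. EC50 = 50% loss of bound probe.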

[2] = biological target: A. baumannii PBP2 (Acinetobacter baumannii, UniProt D0C8Z9); assay: Bocillin-FL competition binding via gel filtration, A. baumannii PBP2
How it was run: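 Competitive equilibrium binding; reporter Bocillin-FL. PBP + inhibitor (titration) pre-incubated → Bocillin-FL, 15 min → gel filtration → fluorescence. EC50 from Hill fit of fraction bound vs [inhibitor].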

[3] = test system: A. baumannii ATCC 17978; assay: microbe, parasite or virus in culture; format: cell-based; details: Acinetobacter baumannii, ATCC17978, read-out: MIC, A. baumannii ATCC 17978
[4] = test system: A. baumannii ATCC 19606; assay: microbe, parasite or virus in culture; format: cell-based; details: Acinetobacter baumannii, ATCC19606, read-out: MIC, A. baumannii ATCC 19606
[5] = test system: P. aeruginosa ATCC 35151; assay: microbe, parasite or virus in culture; format: cell-based; details: Pseudomonas aeruginosa, ATCC35151, read-out: Minimum inhibitory concentration, P. aeruginosa ATCC 35151
[6] = test system: P. aeruginosa CDC-0095; assay: microbe, parasite or virus in culture; format: cell-based; details: Pseudomonas aeruginosa, CDC0095, read-out: Minimum inhibitory concentration, P. aeruginosa CDC-0095
[7] = test system: A. baumannii 1258916; assay: microbe, parasite or virus in culture; format: cell-based, Acinetobacter baumannii; details: Acinetobacter baumannii, 1258916, read-out: MIC, A. baumannii 1258916
[8] = test system: A. baumannii CDC-0033; assay: microbe, parasite or virus in culture; format: cell-based; details: Acinetobacter baumannii, CDC0033, read-out: MIC, A. baumannii CDC-0033
[9] = test system: A. baumannii CDC-0036; assay: microbe, parasite or virus in culture; format: cell-based; details: Acinetobacter baumannii, CDC0036, read-out: MIC, A. baumannii CDC-0036
[10] = test system: A. baumannii CDC-0045; assay: microbe, parasite or virus in culture; format: cell-based; details: Acinetobacter baumannii, CDC0045, read-out: MIC, A. baumannii CDC-0045
[11] = test system: A. baumannii CDC-0083; assay: microbe, parasite or virus in culture; format: cell-based; details: Acinetobacter baumannii, CDC0083, read-out: MIC, A. baumannii CDC-0083
[12] = test system: B. thailandensis ATCC 700388; assay: microbe, parasite or virus in culture; format: cell-based; details: Burkholderia thailandensis, ATCC700388, read-out: Minimum inhibitory concentration (MIC), B. thailandensis ATCC 700388
[13] = test system: B. humptydooensis ATCC BAA-2767; assay: microbe, parasite or virus in culture; format: cell-based; details: Burkholderia humptydooensis, ATCCBAA2767, read-out: Minimum inhibitory concentration (MIC), B. humptydooensis ATCC BAA-2767

T1 sequence (G3XD46 whole entry): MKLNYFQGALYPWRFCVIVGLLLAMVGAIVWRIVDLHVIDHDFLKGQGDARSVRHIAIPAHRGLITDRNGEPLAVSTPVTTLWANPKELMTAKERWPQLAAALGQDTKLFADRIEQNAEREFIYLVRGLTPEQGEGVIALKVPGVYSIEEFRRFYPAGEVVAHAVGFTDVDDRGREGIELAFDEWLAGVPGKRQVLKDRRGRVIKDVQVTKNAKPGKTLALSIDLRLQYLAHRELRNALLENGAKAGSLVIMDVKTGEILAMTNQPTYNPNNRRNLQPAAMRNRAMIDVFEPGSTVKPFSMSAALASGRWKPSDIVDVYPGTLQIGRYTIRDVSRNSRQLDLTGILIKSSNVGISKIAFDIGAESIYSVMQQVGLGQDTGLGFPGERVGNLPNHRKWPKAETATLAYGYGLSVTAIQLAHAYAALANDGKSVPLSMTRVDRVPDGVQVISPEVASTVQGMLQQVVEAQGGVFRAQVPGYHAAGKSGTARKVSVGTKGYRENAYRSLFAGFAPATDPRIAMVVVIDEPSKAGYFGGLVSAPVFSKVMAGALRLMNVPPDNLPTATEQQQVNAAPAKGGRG
Sequence of A. baumannii PBP2 (D0C8Z9 whole entry): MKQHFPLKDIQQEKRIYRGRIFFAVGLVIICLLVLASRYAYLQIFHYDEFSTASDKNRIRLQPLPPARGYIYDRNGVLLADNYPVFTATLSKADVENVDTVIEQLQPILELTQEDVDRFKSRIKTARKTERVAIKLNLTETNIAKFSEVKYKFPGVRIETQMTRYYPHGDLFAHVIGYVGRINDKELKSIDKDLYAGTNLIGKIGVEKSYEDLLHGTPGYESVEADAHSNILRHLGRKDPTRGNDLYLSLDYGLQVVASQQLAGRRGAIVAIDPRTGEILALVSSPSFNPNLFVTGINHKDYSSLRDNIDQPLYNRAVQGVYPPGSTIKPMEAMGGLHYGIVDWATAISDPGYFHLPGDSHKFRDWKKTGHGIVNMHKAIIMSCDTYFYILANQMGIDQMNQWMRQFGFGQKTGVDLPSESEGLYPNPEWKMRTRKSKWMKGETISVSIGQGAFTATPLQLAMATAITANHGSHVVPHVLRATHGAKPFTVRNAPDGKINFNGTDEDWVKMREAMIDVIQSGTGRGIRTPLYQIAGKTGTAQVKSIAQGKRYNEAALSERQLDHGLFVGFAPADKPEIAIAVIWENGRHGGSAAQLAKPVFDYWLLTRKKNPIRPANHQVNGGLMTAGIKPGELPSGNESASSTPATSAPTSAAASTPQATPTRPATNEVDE

O=C(O)c1c(F)ccc2c1OB(O)[C@@H](NC(=O)C(NC(=O)N1CCN(C3CCN(C(=O)c4cccc(O)c4)CC3)C(=O)C1=O)c1cc(F)c(O)c(O)c1Cl)C2 (stereo partly drawn) [Example 293, (3R)-3-(2-(2-chloro-5-fluoro-3,4-dihydroxyphenyl)-2-(4-(1-(3-hydroxybenzoyl)piperidin-4-yl)-2,3-dioxopiperazine-1-carboxamido)acetamido)-7-fluoro-2-hydroxy-3,4-dihydro-2H-benzo[e][1,2]oxaborinine-8-carboxylic acid]
IC50 [1]: < 10 µM
EC50 [2]: 10 to 50 µM
MIC [3]: < 1 µg/mL
MIC [4]: < 1 µg/mL
MIC [5]: < 1 µg/mL
MIC [6]: 2 to 4 µg/mL (≈ 2.54 to 5.09 µM)
MIC [7]: < 1 µg/mL
MIC [8]: 2 to 4 µg/mL (≈ 2.54 to 5.09 µM)
MIC [9]: < 1 µg/mL
MIC [10]: < 1 µg/mL
MIC [11]: < 1 µg/mL
MIC [12]: < 1 µg/mL
MIC [13]: < 1 µg/mL

Cc1cnccc1C(=O)NCCCN1CCN(C(=O)NC(C(=O)N[C@H]2Cc3ccc(F)c(C(=O)O)c3OB2O)c2cc(F)c(O)c(O)c2Cl)C(=O)C1=O (stereo partly drawn) [Example 297, (3R)-3-(2-(2-chloro-5-fluoro-3,4-dihydroxyphenyl)-2-(4-(3-(3-methylisonicotinamido)propyl)-2,3-dioxopiperazine-1-carboxamido)acetamido)-7-fluoro-2-hydroxy-3,4-dihydro-2H-benzo[e][1,2]oxaborinine-8-carboxylic acid]
IC50 [1]: < 10 µM
EC50 [2]: 10 to 50 µM
MIC [3]: < 1 µg/mL
MIC [4]: < 1 µg/mL
MIC [5]: < 1 µg/mL
MIC [6]: < 1 µg/mL
MIC [7]: < 1 µg/mL
MIC [8]: 2 to 4 µg/mL (≈ 2.64 to 5.27 µM)
MIC [9]: 2 to 4 µg/mL (≈ 2.64 to 5.27 µM)
MIC [10]: < 1 µg/mL
MIC [11]: < 1 µg/mL
MIC [12]: 2 to 4 µg/mL (≈ 2.64 to 5.27 µM)
MIC [13]: < 1 µg/mL

O=C(NCCCN1CCN(C(=O)NC(C(=O)N[C@H]2Cc3ccc(F)c(C(=O)O)c3OB2O)c2cc(F)c(O)c(O)c2Cl)C(=O)C1=O)c1ccc(O)c(F)c1 (stereo partly drawn) [Example 304, (3R)-3-(2-(2-chloro-5-fluoro-3,4-dihydroxyphenyl)-2-(4-(3-(3-fluoro-4-hydroxybenzamido)propyl)-2,3-dioxopiperazine-1-carboxamido)acetamido)-7-fluoro-2-hydroxy-3,4-dihydro-2H-benzo[e][1,2]oxaborinine-8-carboxylic acid]
IC50 [1]: < 10 µM
MIC [3]: < 1 µg/mL
MIC [4]: < 1 µg/mL
MIC [5]: < 1 µg/mL
MIC [6]: < 1 µg/mL
MIC [7]: < 1 µg/mL
MIC [8]: 2 to 4 µg/mL (≈ 2.57 to 5.14 µM)
MIC [9]: 2 to 4 µg/mL (≈ 2.57 to 5.14 µM)
MIC [10]: < 1 µg/mL
MIC [11]: < 1 µg/mL
MIC [12]: 2 to 4 µg/mL (≈ 2.57 to 5.14 µM)
MIC [13]: 2 to 4 µg/mL (≈ 2.57 to 5.14 µM)

O=C(NCCCN1CCN(C(=O)N[C@H](C(=O)N[C@H]2Cc3ccc(F)c(C(=O)O)c3OB2O)c2cc(F)c(O)c(O)c2Cl)C(=O)C1=O)c1cccc(O)c1Cl [Example 302, (R)-3-((S)-2-(4-(3-(2-chloro-3-hydroxybenzamido)propyl)-2,3-dioxopiperazine-1-carboxamido)-2-(2-chloro-5-fluoro-3,4-dihydroxyphenyl)acetamido)-7-fluoro-2-hydroxy-3,4-dihydro-2H-benzo[e][1,2]oxaborinine-8-carboxylic acid]
IC50 [1]: 50 to 250 µM
MIC [3]: 2 to 4 µg/mL (≈ 2.52 to 5.04 µM)
MIC [4]: 32 to 64 µg/mL (≈ 40.3 to 80.6 µM)
MIC [5]: 2 to 4 µg/mL (≈ 2.52 to 5.04 µM)
MIC [6]: > 128 µg/mL
MIC [7]: > 128 µg/mL
MIC [8]: > 128 µg/mL
MIC [9]: > 128 µg/mL
MIC [10]: > 128 µg/mL
MIC [11]: > 128 µg/mL
MIC [12]: > 128 µg/mL
MIC [13]: > 128 µg/mL

O=C(NCCCN1CCN(C(=O)N[C@H](C(=O)N[C@H]2Cc3ccc(F)c(C(=O)O)c3OB2O)c2cc(F)c(O)c(O)c2Cl)C(=O)C1=O)c1cc(F)c(O)cc1F (single isomer, unassigned) [Example 472]
IC50 [1]: 10 to 50 µM
MIC [3]: < 1 µg/mL
MIC [4]: 2 to 4 µg/mL (≈ 2.51 to 5.03 µM)
MIC [5]: < 1 µg/mL
MIC [6]: < 1 µg/mL
MIC [7]: 8 to 16 µg/mL (≈ 10.1 to 20.1 µM)
MIC [8]: 8 to 16 µg/mL (≈ 10.1 to 20.1 µM)
MIC [9]: 8 to 16 µg/mL (≈ 10.1 to 20.1 µM)
MIC [10]: 8 to 16 µg/mL (≈ 10.1 to 20.1 µM)
MIC [11]: > 128 µg/mL
MIC [12]: 2 to 4 µg/mL (≈ 2.51 to 5.03 µM)
MIC [13]: 2 to 4 µg/mL (≈ 2.51 to 5.03 µM)

O=C(NCCCN1CCN(C(=O)N[C@H](C(=O)N[C@H]2Cc3ccc(F)c(C(=O)O)c3OB2O)c2cc(F)c(O)c(O)c2Cl)C(=O)C1=O)c1ccc(O)cc1Cl (single isomer, unassigned) [Example 470]
IC50 [1]: 10 to 50 µM
MIC [3]: < 1 µg/mL
MIC [4]: 8 to 16 µg/mL (≈ 10.1 to 20.1 µM)
MIC [5]: < 1 µg/mL
MIC [6]: < 1 µg/mL
MIC [7]: > 128 µg/mL
MIC [8]: 8 to 16 µg/mL (≈ 10.1 to 20.1 µM)
MIC [9]: 32 to 64 µg/mL (≈ 40.3 to 80.6 µM)
MIC [10]: > 128 µg/mL
MIC [11]: > 128 µg/mL
MIC [12]: > 128 µg/mL
MIC [13]: 8 to 16 µg/mL (≈ 10.1 to 20.1 µM)

O=C(NCCCN1CCN(C(=O)N[C@H](C(=O)N[C@H]2Cc3ccc(F)c(C(=O)O)c3OB2O)c2cc(F)c(O)c(O)c2Cl)C(=O)C1=O)c1ccnc(F)c1F [Example 299, (R)-3-((S)-2-(2-chloro-5-fluoro-3,4-dihydroxyphenyl)-2-(4-(3-(2,3-difluoroisonicotinamido)propyl)-2,3-dioxopiperazine-1-carboxamido)acetamido)-7-fluoro-2-hydroxy-3,4-dihydro-2H-benzo[e][1,2]oxaborinine-8-carboxylic acid]
IC50 [1]: 10 to 50 µM
MIC [3]: < 1 µg/mL
MIC [4]: 2 to 4 µg/mL (≈ 2.56 to 5.12 µM)
MIC [5]: < 1 µg/mL
MIC [6]: 2 to 4 µg/mL (≈ 2.56 to 5.12 µM)
MIC [7]: 8 to 16 µg/mL (≈ 10.2 to 20.5 µM)
MIC [8]: 8 to 16 µg/mL (≈ 10.2 to 20.5 µM)
MIC [9]: 32 to 64 µg/mL (≈ 41 to 82 µM)
MIC [10]: > 128 µg/mL
MIC [11]: 2 to 4 µg/mL (≈ 2.56 to 5.12 µM)
MIC [12]: > 128 µg/mL
MIC [13]: > 128 µg/mL

O=C(NCCS(=O)(=O)N1CCN(C(=O)N[C@H](C(=O)N[C@H]2Cc3ccc(F)c(C(=O)O)c3OB2O)c2cc(F)c(O)c(O)c2Cl)C1=O)c1ccc(O)cc1 [Example 286, (R)-3-((S)-2-(2-chloro-5-fluoro-3,4-dihydroxyphenyl)-2-(3-((2-(4-hydroxybenzamido)ethyl)sulfonyl)-2-oxoimidazolidine-1-carboxamido)acetamido)-7-fluoro-2-hydroxy-3,4-dihydro-2H-benzo[e][1,2]oxaborinine-8-carboxylic acid]
IC50 [1]: > 250 µM
MIC [3]: > 128 µg/mL
MIC [4]: > 128 µg/mL
MIC [5]: 8 to 16 µg/mL (≈ 10.2 to 20.5 µM)
MIC [6]: > 128 µg/mL
MIC [7]: > 128 µg/mL
MIC [8]: > 128 µg/mL
MIC [9]: > 128 µg/mL
MIC [10]: > 128 µg/mL
MIC [11]: > 128 µg/mL
MIC [12]: > 128 µg/mL
MIC [13]: > 128 µg/mL

O=C(O)c1c(F)ccc2c1OB(O)[C@@H](NC(=O)C(NC(=O)N1CCN(Cc3ccc(O)c(O)c3Cl)C(=O)C1=O)c1cc(F)c(O)c(O)c1Cl)C2 (stereo partly drawn) [Example 292, (3R)-3-(2-(4-(2-chloro-3,4-dihydroxybenzyl)-2,3-dioxopiperazine-1-carboxamido)-2-(2-chloro-5-fluoro-3,4-dihydroxyphenyl)acetamido)-7-fluoro-2-hydroxy-3,4-dihydro-2H-benzo[e][1,2]oxaborinine-8-carboxylic acid]
IC50 [1]: < 10 µM
MIC [3]: < 1 µg/mL
MIC [4]: > 128 µg/mL
MIC [5]: < 1 µg/mL
MIC [6]: > 128 µg/mL
MIC [7]: > 128 µg/mL
MIC [8]: > 128 µg/mL
MIC [9]: > 128 µg/mL
MIC [10]: > 128 µg/mL
MIC [11]: > 128 µg/mL
MIC [12]: > 128 µg/mL
MIC [13]: > 128 µg/mL

O=C(NCCCN1CCN(C(=O)NC(C(=O)N[C@H]2Cc3ccc(F)c(C(=O)O)c3OB2O)c2cc(F)c(O)c(O)c2Cl)C1=O)c1cccnc1 (stereo partly drawn) [Example 281, (3R)-3-(2-(2-chloro-5-fluoro-3,4-dihydroxyphenyl)-2-(3-(3-(nicotinamido)propyl)-2-oxoimidazolidine-1-carboxamido)acetamido)-7-fluoro-2-hydroxy-3,4-dihydro-2H-benzo[e][1,2]oxaborinine-8-carboxylic acid]
IC50 [1]: < 10 µM
MIC [3]: < 1 µg/mL
MIC [4]: < 1 µg/mL
MIC [5]: < 1 µg/mL
MIC [6]: 2 to 4 µg/mL (≈ 2.79 to 5.58 µM)
MIC [7]: < 1 µg/mL
MIC [8]: 2 to 4 µg/mL (≈ 2.79 to 5.58 µM)
MIC [9]: 2 to 4 µg/mL (≈ 2.79 to 5.58 µM)
MIC [10]: < 1 µg/mL
MIC [11]: 8 to 16 µg/mL (≈ 11.2 to 22.3 µM)
MIC [12]: 2 to 4 µg/mL (≈ 2.79 to 5.58 µM)
MIC [13]: < 1 µg/mL
